For the data set the following is noted: from C=CCC(C)(C)COC(=O)N[C@H](C(=O)N1C[C@H](Oc2cc(=O)[nH]c3cc(OC)c(C=C)cc23)C[C@H]1C(=O)OC)C1CCCCC1; rcm bond; Zhan 1b catalyst; DCM; 5.0 mM; 40.0 °C; 32.0 h.

The structures appear in SMILES notation.

Consider one compound from patent US8927569.

In turn, `COC(=O)[C@@H]1C[C@@H]2CN1C(=O)[C@H](C1CCCCC1)NC(=O)OCC(C)(C)C/C=C/c1cc3c(cc(=O)[nH]c3cc1OC)O2` gave a ring closure, yield of all isomers of 99%.
